# In patent US20140314857A1, “FORMULATIONS FOR ENHANCED BIOAVAILABILITY OF ZANAMIVIR” (priority 2012, published 2014):
# Test system: Caco-2 cell monolayers
# Experiment: Initial screening of permeability enhancers with peramivir across Caco-2 cell monolayers
# Conditions: with glycerol or Capmul MCM L8 as enhancer; results not shown
smiles,measurement,value
CCC(CC)[C@H](NC(C)=O)[C@@H]1[C@H](O)[C@@H](C(=O)O)C[C@H]1N=C(N)N [peramivir],drug transport across Caco-2 cell monolayers,substantially increased drug transport
